Key:
[1] = tested on: HaCat normal keratinocytes; assay: MTT cell viability assay, HaCat; assay type: cell-based, human; settings: Homo sapiens, HaCaT, 24 h, combinations 1:1, mean ± SD, read-out: HaCat IC50
Excerpt: The human cell lines TK10 (human kidney adenocarcinoma), UACC62 (human melanoma) and MCF7 (human breast adenocarcinoma) were obtained from the National Cancer Institute (NCI) as part of a panel widely studied for drug screening and molecular target identification. […] The nontumorigenic human immortalized keratinocyte (HaCaT) cells were a kind donation by the School of Anatomical Sciences, Faculty of Health Sciences, University of the Witwatersrand, South Africa. […] All reagents were of analytical grade and were obtained from Merck (Darmstadt, Germany) unless stated otherwise. Cells were cultured in Dulbecco’s modified essential medium (DMEM; Hyclone, GE healthcare, South Logan, UT, USA) containing 10% fetal bovine serum (FBS), 1% penicillin/streptomycin, 1% 200 mM L-Glutamine and 1% nonessential amino acids (Lonza, Basel, Switzerland) at 37°C in a humidified atmosphere of 5% CO2. Stock solutions of the compounds were prepared in dimethyl sulfoxide (DMSO). All subsequent dilutions were prepared in serum-free DMEM and vehicle controls were included in all experiments
The growth inhibitory effects of the compounds were tested in the 3-cell line panel consisting of TK10 (renal), UACC62 (melanoma) and MCF7 (breast) cancer cells by Sulforhodamine B (SRB) assay. […] Compounds prepared in DMSO were tested at 0.01–100 µM serial dilutions to establish initial inhibitory concentrations. […] After 24 h exposure to compounds, growth medium was removed, cells rinsed twice with 1 ml of phosphate buffered saline (PBS) and 100 µl fresh serum-free medium containing 5 mg/ml MTT solution was added MTT solution was prepared fresh for each analysis). Cells were then incubated for 4 h at 37°C, after which the MTT was removed and substituted with 100 µl dimethyl sulfoxide (DMSO) to dissolve the formazan crystals for an h at 37°C. After incubation, cell viability was determined using a microplate reader (BioTek®, Vermont, USA) at an excitation wavelength of 560 nm and emission wavelength of 630 nm with DMSO measured as a blank. Cell viability was expressed as a percentage relative to the untreated control, which is assumed to be 100% viable. For a positive control, cells were treated with 0.01% Triton-X 100 (Sigma-Aldrich, St Louis, MO, USA) for a period of 4 h. Using the MTT assay data, IC50 values were calculated using GraphPad Prism 8. Data were normalized to the positive (alleged to be 0% viable) and negative controls (presumed to be 100% viable), followed by the log-transformation of the concentration values. […] A crude therapeutic index (fold decrease in IC50 value) was calculated as the IC50 of the noncancerous cell-line/IC50 of the cancerous cell line. […] Drug interactions were evaluated for synergism, additivity or antagonism using multiple drug effect analysis, based on the median-principle. Cells were treated with the drug combinations for 24 h and analyzed. The CompuSyn (ComboSyn, Inc. NJ, USA) software package was used to generate the median-effect plots and combination index plots. […] All experiments were performed at least in triplicate and repeated independently.
Next, the quantitative colorimetric MTT assay was used to determine in vitro cell viability with A375 (melanoma) and HaCat (nonmalignant keratinocyte) cells. […] The IC50 was used to determine a crude therapeutic index (fold increase or decline in IC50).

A375 melanoma cells = assay: FITC Annexin V/PI flow cytometry, A375; assay type: cell-based, human; settings: A375, 24 h
Experimental: The FITC Annexin V apoptosis detection kit I (BD Pharmigen™, BD Biosciences, San Jose, CA, USA) was used for the detection of apoptosis using flow cytometry. FITC Annexin V emits green fluorescence which indicates apoptosis, whereas propidium iodide (PI) emits red fluorescence and stains dead cells ([Vermes et al., 1995]). The assay was performed according to the manufacturer’s instructions with minor alterations. In brief, cells were seeded in a 96-well plate and grown to ~90% confluence. The cells were exposed to amounts of the prenylated piperazine derivatives and combinations with elesclomol-Cu(II) 1-Cu corresponding to the IC50 values. […] After incubation, 100 µl 1X binding buffer was added to each tube and then analyzed using the BD FACSVerse™ and BD FACSuite™ Software. […] At least 10,000 cellular events were analyzed for each sample. A logarithmic amplification scale was employed and events plotted on forward scatter (FSC), side scatter (SSC), green fluorescence (FL1) and red fluorescence (FL2). […]
Flow cytometry was employed to establish if the observed decrease in cell viability in melanoma cells was of necrotic or apoptotic origin. Cultured melanoma and keratinocyte cells were exposed to predetermined IC50 concentrations of the prenylated piperazine-DHA derivatives and analyzed using the FITC Annexin V/PI flow cytometry assay. […]
Figure 8 Apoptosis measured by FITC Annexin V/PI assay. […]

Row | SMILES | CC50 [1] | Cells undergoing apoptosis (A375 melanoma cells; IC50 concentrations (6 45 µM, 7 30 µM, 1-Cu 2 nM; combinations 1:1)) | Late apoptosis/necrosis (FITC-Annexin V positive and PI positive) (A375 melanoma cells; 45 µM)
1 | C[C@H]1[C@H](N2CCS(=O)(=O)CC2)O[C@@H]2O[C@@]3(C)CC[C@H]4[C@H](C)CC[C@@H]1[C@@]24OO3 [Artemisone 4, artemisone] | 268.8 ± 1.97 µM | – | –
2 | CC(C)=CCC/C(C)=C/CC/C(C)=C/CN1CCN([C@@H]2O[C@@H]3O[C@@]4(C)CC[C@H]5[C@H](C)CC[C@@H]([C@H]2C)[C@@]35OO4)CC1 [Farnesylpiperazine-DHA 7, farnesylpiperazine-DHA] | 70.6 ± 1.07 µM | 30.5 ± 3.7% | –
3 | C[C@@H]1CC[C@H]2[C@@H](C)C(=O)O[C@@H]3O[C@@]4(C)CC[C@@H]1[C@]32OO4 [Artemisinin 2, artemisinin] | 381 ± 5.36 µM | – | –
4 | CC(C)=CCC/C(C)=C/CN1CCN([C@@H]2O[C@@H]3O[C@@]4(C)CC[C@H]5[C@H](C)CC[C@@H]([C@H]2C)[C@@]35OO4)CC1 [Geranylpiperazine-DHA 6, geranylpiperazine-DHA] | 106 ± 3.99 µM | – | 37.7 ± 2.1%

— publication PMC7552967, “Anti-Melanoma Activities of Artemisone and Prenylated Amino-Artemisinins in Combination With Known Anticancer Drugs” (Frontiers in Pharmacology, 2020)
